In patent EP4122917A1, “C2-THIOETHER […] AND TETRAMERS AND USE THEREOF” (priority 2021, dated 2023):
Where two headings read alike, the source gives them in different places.

Legend:
in vitro [1] = settings: monkey, vero cells
[2] = test system: Pseudotyped vesicular stomatitis virus (VSV) carrying a codon-optimized S protein of the Wuhan SARS-CoV-2 strain; type: cell-based; settings: read-out: IC50 (µM) Pseudotype VSV (Vero)
[3] = test system: Pseudotyped vesicular stomatitis virus (VSV) carrying a codon-optimized S protein of the Wuhan SARS-CoV-2 strain; type: cell-based; settings: read-out: IC50 (µM) Pseudotype VSV (A549ACE2-TM PRSS2)
in vitro [4] = settings: human, a549-ace2-tmprss2 cells
in vitro [5] = settings: monkey, vero-e6 cells

| Structure (SMILES) | CC50 (in vitro [1]) [µM] | IC50 [2] [µM] | IC50 [3] [µM] | CC50 (in vitro [4]) [µM] | CC50 at 24 h (in vitro [5]) [µM] |
| --- | --- | --- | --- | --- | --- |
| NCC(=O)NC(CCC(=O)N[C@@H](Cc1c(Sc2ccc(C(F)(F)F)cc2)[nH]c2ccccc12)C(=O)O)(CCC(=O)N[C@@H](Cc1c(Sc2ccc(C(F)(F)F)cc2)[nH]c2ccccc12)C(=O)O)CCC(=O)N[C@@H](Cc1c(Sc2ccc(C(F)(F)F)cc2)[nH]c2ccccc12)C(=O)O [Compound 7d] | > 100 | 15.1 | 9.35 | > 100 | – |
| NCC(=O)NC(CCC(=O)N[C@@H](Cc1c(Sc2ccc(F)cc2)[nH]c2ccccc12)C(=O)O)(CCC(=O)N[C@@H](Cc1c(Sc2ccc(F)cc2)[nH]c2ccccc12)C(=O)O)CCC(=O)N[C@@H](Cc1c(Sc2ccc(F)cc2)[nH]c2ccccc12)C(=O)O [Compound 7f] | > 100 | 28.4 | 31 | > 100 | – |
| NCC(=O)NC(CCC(=O)N[C@@H](Cc1c(Sc2ccc([N+](=O)[O-])cc2)[nH]c2ccccc12)C(=O)O)(CCC(=O)N[C@@H](Cc1c(Sc2ccc([N+](=O)[O-])cc2)[nH]c2ccccc12)C(=O)O)CCC(=O)N[C@@H](Cc1c(Sc2ccc([N+](=O)[O-])cc2)[nH]c2ccccc12)C(=O)O [Compound 7a] | > 100 | 0.23 | 2.4 | > 100 | > 100 |
| NCC(=O)NC(CCC(=O)N[C@@H](Cc1c(Sc2cccc([N+](=O)[O-])c2)[nH]c2ccccc12)C(=O)O)(CCC(=O)N[C@@H](Cc1c(Sc2cccc([N+](=O)[O-])c2)[nH]c2ccccc12)C(=O)O)CCC(=O)N[C@@H](Cc1c(Sc2cccc([N+](=O)[O-])c2)[nH]c2ccccc12)C(=O)O [Compound 7b] | > 100 | 13 | 6.44 | > 100 | – |
| CC(=O)c1ccc(Sc2[nH]c3ccccc3c2C[C@H](NC(=O)CCC(CCC(=O)N[C@@H](Cc2c(Sc3ccc(C(C)=O)cc3)[nH]c3ccccc23)C(=O)O)(CCC(=O)N[C@@H](Cc2c(Sc3ccc(C(C)=O)cc3)[nH]c3ccccc23)C(=O)O)NC(=O)CN)C(=O)O)cc1 [Compound 7c] | > 100 | 1.4 | 1.94 | > 100 | > 100 |
| N#Cc1ccc(Sc2[nH]c3ccccc3c2C[C@H](NC(=O)CCC(CCC(=O)N[C@@H](Cc2c(Sc3ccc(C#N)cc3)[nH]c3ccccc23)C(=O)O)(CCC(=O)N[C@@H](Cc2c(Sc3ccc(C#N)cc3)[nH]c3ccccc23)C(=O)O)NC(=O)CN)C(=O)O)cc1 [Compound 7e] | > 100 | 13.9 | 8.8 | > 100 | – |
